Test results from PubChem BioAssay AID2060485 (Molecular Pharmacology Branch, DTP, NCI, 2025).

System: A375 multi-cell spheroids with HUVEC/MSC, viability
Assay: Anticancer human tumor A375 cell line growth inhibition [GQUAD];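 further: spheroids exposed to compounds for seven days before readout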
Settings: for IC50: curve of first compound; for viability, T/C: stronger effect = lower value
Excerpt: DNA G-quadruplex Stabilizer Agents in Combinations in Complex Spheroids
A high-throughput screen of multi-cell type tumor spheroids was designed to identify active combinations of DNA G-quadruplex stabilizer agents and targeted small molecules. Complex spheroids include a stromal component modeled by human endothelial cells (HUVEC) and fibroblasts modeled by human mesenchymal stem cells (MSCs). The concentration ranges selected for each drug and investigational agent were based upon clinically achievable concentrations if the clinical Cmax of the agent was known.
Compounds. The drugs and investigational agents: pidnarulex (CX-5461; NSC782164), APTO-253 (NSC789042), BRACO-19 (NSC847499), peposertib (NSC802822), ceralasertib (NSC780249), elimusertib (NSC800525), camonsertib (NSC841442), AZD-1390 (NSC803789), olaparib (NSC753686), talazoparib (NSC767125), ART-558 (NSC835418), sotorasib (NSC818433), MRTX-1133 (NSC836407), SN-38 (NSC673596), topotecan (NSC609699), etoposide (NSC141540), doxorubicin (NSC123127), gemcitabine (NSC613327), 5-fluorouracil (NSC19893), paclitaxel (NSC125973), vemurafenib (NSC761431), panobinostat (NSC761190), R-306465 (JNJ-16241199; NSC773264), adavosertib (NSC754352), TP-3654 (NSC805149), carboplatin (NSC241240), KSQ-4279 (NSC840948), and staurosporine (NSC755774) were obtained from the National Cancer Institute (NCI) Developmental Therapeutics Program Chemical Repository (34). The FDA-approved anticancer drug set is available from the NCI Developmental Therapeutics Program. […] The stock solutions were prepared in dimethyl sulfoxide (DMSO, Sigma-Aldrich, St. Louis, MO, cat. D2650) at 800-fold the tested concentration and stored at -70 degrees C prior to their use. All drugs and investigational agents were tested over a range starting from a high concentration at or near the clinical Cmax and decreasing in half-log increments. If the clinical Cmax for an agent had not been determined, the highest concentration tested was 10 microM.
2.3 Cell Culture. All cells were maintained in an incubator at 37 degrees C and 5% CO2 with 95% humidity. The PDC lines were cultured according to standard operating procedures established by the NCI PDMR. All PDCs were thawed and cultured in Matrigel-coated flasks prepared with a working solution of 1X Ham's F-12 nutrient mix, without supplementation (Invitrogen, cat. 11765054), 100 U/mL penicillin-streptomycin (Invitrogen, cat. 15140122), and 2.5% Matrigel (Corning Inc., cat. 354248) for the first three passages. The 857933-349-R-J2-PDC line was cultured in 6C/Colon 1B media, which includes advanced DMEM/F-12 (Thermo Fisher Scientific, cat. 12634028), 10 mM HEPES (Thermo Fisher Scientific, cat. 15630080), 1X GlutaMAX supplement (Thermo Fisher Scientific, cat. 35050061), 0.1 mg/mL primocin (InvivoGen, cat. ant-pm-2), 10% defined fetal bovine serum, heat inactivated (HyClone Laboratories Inc., cat. SH30070.03HI), 50% L-WRN conditioned media (ATCC, cat. CRL-3276), 1.25 mM N-Acetyl-L-cysteine (Sigma-Aldrich, cat. A9165), 10 mM nicotinamide (Sigma-Aldrich, cat. N0636), 1X B-27 supplement (Thermo Fisher Scientific, cat. 17504044), 1X N-2 supplement (Thermo Fisher Scientific, cat. 17502048), 10 microM Y-27632 dihydrochloride (Tocris Bioscience, cat. 1254), and 50 ng/mL human EGF recombinant protein (Thermo Fisher Scientific, cat. PHG0311). The 485176-168-R4-J1-PDC line was cultured in Panc media, which includes all 6C/Colon 1B media components plus 100 ng/mL human FGF-10 (Thermo Fisher Scientific, cat. 100-26), 500 nM SB-431542 (Selleckchem, cat. S1067), and gastrin (Tocris, cat. 3006).
[…]

[1] = second compound 0.0316 µM, first compound 0.0316 µM
[2] = second compound 0.0316 µM, first compound 0.316 µM
[3] = second compound 0.1 µM, first compound 0.0316 µM
[4] = second compound 0.1 µM, first compound 0.316 µM
[5] = second compound 0.316 µM, first compound 0.0316 µM
[6] = second compound 0.316 µM, first compound 0.316 µM
[7] = second compound 1 µM, first compound 0.0316 µM
[8] = second compound 1 µM, first compound 0.316 µM
[9] = second compound 3.16 µM, first compound 0.0316 µM
[10] = second compound 3.16 µM, first compound 0.316 µM
[11] = second compound 10 µM, first compound 0.0316 µM
[12] = second compound 10 µM, first compound 0.316 µM

`COc1cc(C2c3cc4c(cc3C(OC3OC5COC(C)OC5C(O)C3O)C3COC(=O)C23)OCO4)cc(OC)c1O` (centres undefined) + CN(C)c1ccc(Nc2c3ccc(NC(=O)CCN4CCCC4)cc3nc3cc(NC(=O)CCN4CCCC4)ccc23)cc1 was tested, and the IC50 (second compound 0.0316 µM) was 1.02 µM, the IC50 (second compound 0.1 µM) was 0.966 µM and the IC50 (second compound 0.316 µM) was 1.2 µM. It also gave an IC50 (second compound 1 µM) of 1.41 µM, an IC50 (second compound 3.16 µM) of 1.58 µM and an IC50 (second compound 10 µM) of 1.46 µM. For the same molecule, the viability, T/C [1] was 99%, the viability, T/C (second compound 0.0316 µM, first compound 0.1 µM) was 105% and the viability, T/C [2] was 75.3%. The viability, T/C (second compound 0.0316 µM, first compound 1 µM) was 52.5%, the viability, T/C (second compound 0.0316 µM, first compound 3.16 µM) was 27.5% and the viability, T/C (second compound 0.0316 µM, first compound 10 µM) was 19%. It also gave a viability, T/C [3] of 109%, a viability, T/C (second compound 0.1 µM, first compound 0.1 µM) of 103% and a viability, T/C [4] of 71.6%. The viability, T/C (second compound 0.1 µM, first compound 1 µM) was 50.2%, the viability, T/C (second compound 0.1 µM, first compound 3.16 µM) was 31.1% and the viability, T/C (second compound 0.1 µM, first compound 10 µM) was 18%. For the same molecule, the viability, T/C [5] was 107%, the viability, T/C (second compound 0.316 µM, first compound 0.1 µM) was 107% and the viability, T/C [6] was 74.2%. It also gave a viability, T/C (second compound 0.316 µM, first compound 1 µM) of 55.1%, a viability, T/C (second compound 0.316 µM, first compound 3.16 µM) of 33% and a viability, T/C (second compound 0.316 µM, first compound 10 µM) of 18.2%. The viability, T/C [7] was 117%, the viability, T/C (second compound 1 µM, first compound 0.1 µM) was 105% and the viability, T/C [8] was 86.3%. The viability, T/C (second compound 1 µM, first compound 1 µM) was 58.6%, the viability, T/C (second compound 1 µM, first compound 3.16 µM) was 30.9% and the viability, T/C (second compound 1 µM, first compound 10 µM) was 18.1%. It also gave a viability, T/C [9] of 103%, a viability, T/C (second compound 3.16 µM, first compound 0.1 µM) of 103% and a viability, T/C [10] of 84.5%. The viability, T/C (second compound 3.16 µM, first compound 1 µM) was 60.1%, the viability, T/C (second compound 3.16 µM, first compound 3.16 µM) was 35.2% and the viability, T/C (second compound 3.16 µM, first compound 10 µM) was 18.8%. For the same molecule, the viability, T/C [11] was 105%, the viability, T/C (second compound 10 µM, first compound 0.1 µM) was 99.9% and the viability, T/C [12] was 80.6%. It also gave a viability, T/C (second compound 10 µM, first compound 1 µM) of 56.9%, a viability, T/C (second compound 10 µM, first compound 3.16 µM) of 35.9% and a viability, T/C (second compound 10 µM, first compound 10 µM) of 20.1%.
`Cc1[nH]c2ccccc2c1CCNCc1ccc(/C=C/C(=O)NO)cc1` + CN(C)c1ccc(Nc2c3ccc(NC(=O)CCN4CCCC4)cc3nc3cc(NC(=O)CCN4CCCC4)ccc23)cc1 was tested, and the IC50 (second compound 0.0316 µM) was 0.156 µM, the IC50 (second compound 0.1 µM) was 0.133 µM and the IC50 (second compound 0.316 µM) was 0.127 µM. For the same molecule, the IC50 (second compound 1 µM) was 0.119 µM, the IC50 (second compound 3.16 µM) was 0.106 µM and the IC50 (second compound 10 µM) was 0.0977 µM. For the same molecule, the viability, T/C (second compound 0.0316 µM, first compound 0.000999 µM) was 111%, the viability, T/C (second compound 0.0316 µM, first compound 0.00316 µM) was 101% and the viability, T/C (second compound 0.0316 µM, first compound 0.00999 µM) was 110%. It also gave a viability, T/C [1] of 122%, a viability, T/C (second compound 0.0316 µM, first compound 0.0999 µM) of 76% and a viability, T/C [2] of 9.06%. The viability, T/C (second compound 0.1 µM, first compound 0.000999 µM) was 99.1%, the viability, T/C (second compound 0.1 µM, first compound 0.00316 µM) was 110% and the viability, T/C (second compound 0.1 µM, first compound 0.00999 µM) was 124%. The viability, T/C [3] was 127%, the viability, T/C (second compound 0.1 µM, first compound 0.0999 µM) was 64% and the viability, T/C [4] was 7.22%. The viability, T/C (second compound 0.316 µM, first compound 0.000999 µM) was 107%, the viability, T/C (second compound 0.316 µM, first compound 0.00316 µM) was 110% and the viability, T/C (second compound 0.316 µM, first compound 0.00999 µM) was 111%. For the same molecule, the viability, T/C [5] was 114%, the viability, T/C (second compound 0.316 µM, first compound 0.0999 µM) was 61.5% and the viability, T/C [6] was 7.25%. It also gave a viability, T/C (second compound 1 µM, first compound 0.000999 µM) of 104%, a viability, T/C (second compound 1 µM, first compound 0.00316 µM) of 113% and a viability, T/C (second compound 1 µM, first compound 0.00999 µM) of 116%. The viability, T/C [7] was 110%, the viability, T/C (second compound 1 µM, first compound 0.0999 µM) was 58% and the viability, T/C [8] was 5.35%. It also gave a viability, T/C (second compound 3.16 µM, first compound 0.000999 µM) of 98.4%, a viability, T/C (second compound 3.16 µM, first compound 0.00316 µM) of 106% and a viability, T/C (second compound 3.16 µM, first compound 0.00999 µM) of 113%. For the same molecule, the viability, T/C [9] was 114%, the viability, T/C (second compound 3.16 µM, first compound 0.0999 µM) was 52.3% and the viability, T/C [10] was 5.53%. It also gave a viability, T/C (second compound 10 µM, first compound 0.000999 µM) of 111%, a viability, T/C (second compound 10 µM, first compound 0.00316 µM) of 98.7% and a viability, T/C (second compound 10 µM, first compound 0.00999 µM) of 112%. The viability, T/C [11] was 106%, the viability, T/C (second compound 10 µM, first compound 0.0999 µM) was 48.9% and the viability, T/C [12] was 3.5%.
